Data published in patent publication US5644059A, “1,4-dihydropyridine derivatives and methods of producing the same” (Fujirebio Inc., priority 1990, dated 1997).

Test system: platelet aggregation
Assay: Test for platelet aggregation-inhibiting activity of rabbit (PAF-induced aggregation in platelet rich plasma)
Type: cell-based
Set-up: dose or concentration left out as unconfirmed
Details: rabbit PRP, 37°C, 10 minutes incubation, aggregation by PAF (10 μl); test compound concentration not given
Experimental: 2. Test for platelet aggregation-inhibiting activity of rabit
A blood of a rabbit (Japanese white; male; 2.5-3.0 kg) was exsanguinated from a carotid of the rabbit, and nine parts of the blood were mixed with one part of a 3.8% aqueous solution of sodium citrate. The mixture was centrifuged at 1100 rpm at 20°C. for 15 minutes. The upper layer is a platelet rich plasma (PRP), and the lower layer was centrifuged at 2500 rpm at 20° C. for 10 minutes, so that a platelet poor plasma (PPP) was obtained.
10 μl of a solution of the compound to be tested was added to 200 μl of PRP, and the mixture was subjected to incubation at 37°C. for 10 minutes. To the mixture was added 10 μl of a platelet activating factor (PAF)(10 mg/ml). The agglutination was measured by Agricometer (NKK, PAT-4A).

| SMILES | Platelet Aggregation-Inhibiting Activity [%] |
| --- | --- |
| COC(=O)C1=C(C)NC(C)=C(C(=O)N[C@H](C(=O)OC(C)(C)C)C(C)C)C1c1cccc([N+](=O)[O-])c1 (single isomer, unassigned) [1 (Compound a)] | 42.8 |
| COC(=O)C1=C(C)NC(C)=C(C(=O)N[C@@H](C(=O)OC(C)(C)C)C(C)C)C1c1cccc([N+](=O)[O-])c1 (single isomer, unassigned) [2 (Compound a)] | 25.5 |
| COC(=O)C1=C(C)NC(C)=C(C(=O)N[C@H](C(=O)OC(C)(C)C)C(C)C)C1c1ccccc1Cl (single isomer, unassigned) [7 (Compound a)] | 54.1 |
| COC(=O)C1=C(C)NC(C)=C(C(=O)N[C@H](C(=O)OC(C)(C)C)C(C)C)C1c1ccccc1F (single isomer, unassigned) [13 (Compound a)] | 37.7 |
| COC(=O)C1=C(C)NC(C)=C(C(=O)N[C@H](C(=O)OC(C)(C)C)C(C)C)C1c1cccc(Cl)c1 (single isomer, unassigned) [18 (Compound a)] | 33.8 |
| COC(=O)C1=C(C)NC(C)=C(C(=O)N[C@H](C(=O)OC(C)(C)C)C(C)C)C1c1cccc(F)c1 (single isomer, unassigned) [19 (Compound a)] | 35.4 |
| COC(=O)C1=C(C)NC(C)=C(C(=O)N[C@H](C(=O)OC(C)(C)C)C(C)C)C1c1cccc(C#N)c1 (single isomer, unassigned) [22 (Compound a)] | 20.2 |
| COC(=O)C1=C(C)NC(C)=C(C(=O)N[C@H](C(=O)OC(C)(C)C)C(C)C)C1c1ccccc1 (single isomer, unassigned) [24 (Compound a)] | 24.3 |
| COC(=O)C1=C(C)NC(C)=C(C(=O)N[C@H](C(=O)OC(C)(C)C)C(C)C)C1c1ccccc1[N+](=O)[O-] (single isomer, unassigned) [27 (Compound a)] | 33.3 |
| COCCOC(=O)C1=C(C)NC(C)=C(C(=O)N[C@H](C(=O)OC(C)(C)C)C(C)C)C1c1cccc([N+](=O)[O-])c1 (single isomer, unassigned) [50 (Compound a)] | 23.5 |
| CC1=C(C(=O)NCC(=O)OC(C)(C)C)C(c2cccc([N+](=O)[O-])c2)C(C(=O)N[C@H](C(=O)OC(C)(C)C)C(C)C)=C(C)N1 (single isomer, unassigned) [52 (Compound a)] | 29.2 |
| COC(=O)C1=C(C)NC(C)=C(C(=O)N[C@@H](C(=O)OC(C)(C)C)C(C)C)C1c1cccc([N+](=O)[O-])c1 (stereo partly shown) [2 (Compound b)] | 98.2 |
| COC(=O)C1=C(C)NC(C)=C(C(=O)NCC(=O)OC(C)(C)C)C1c1cccc([N+](=O)[O-])c1 (stereo not shown) [Example 3, t-butyl 2-[N-[1,4-dihydro-2,6-dimethyl-5-methoxycarbonyl-4-(3-nitrophenyl)pyridine-3-carbonyl]amino]acetate] | 100 |
| COC(=O)C1=C(C)NC(C)=C(C(=O)NCC(=O)OC(C)(C)C)C1c1ccccc1Cl (stereo not shown) [Example 8, t-butyl 2-[N-[1,4-dihydro-2,6-dimethyl-5-methoxycarbonyl-4-(2-chlorophenyl)pyridine-3-carbonyl]-amino]acetate] | 39.1 |
| COC(=O)C1=C(C)NC(C)=C(C(=O)N[C@@H](C)C(=O)OC(C)(C)C)C1c1ccccc1Cl (stereo partly drawn) [Example 9, t-butyl 2-(S)-[N-[1,4-dihydro-2,6-dimethyl-5-methoxycarbonyl-4-(2-chlorophenyl)pyridine-3-carbonyl]amino]propionate] | 29.8 |
| COC(=O)C1=C(C)NC(C)=C(C(=O)N[C@H](C(=O)OC(C)(C)C)C(C)C)C1c1cccc(OC)c1 (stereo partly drawn) [Example 23, t-butyl 2-(S)-[N-[1,4-dihydro-2,6-dimethyl-5-methoxycarbonyl-4-(3-methoxyphenyl)pyridine-3-carbonyl]-amino]-3-methylbutylate] | 33.6 |
| COC(=O)C1=C(C)NC(C)=C(C(=O)NCC(=O)OC(C)(C)C)C1c1cccc(Cl)c1 (stereo not shown) [Example 32, t-butyl 2-[N-[1,4-dihydro-2,6-dimethyl-5-methoxycarbonyl-4-(3-chlorophenyl)pyridine-3-carbonyl]-amino]acetate] | 100 |

| SMILES | Platelet Aggregation-Inhibiting Activity [%] |
| --- | --- |
| COC(=O)C1=C(C)NC(C)=C(C(=O)NCC(=O)OC(C)(C)C)C1c1ccccc1C#N (stereo not shown) [Example 33, t-butyl 2-[N-[1,4-dihydro-2,6-dimethyl-5-methoxycarbonyl-4-(2-cyanophenyl)pyridine-3-carbonyl]-amino]acetate] | 94.2 |
| COC(=O)C1=C(C)NC(C)=C(C(=O)NCC(=O)OC(C)(C)C)C1c1cccc(C#N)c1 (stereo not shown) [Example 34, t-butyl 2-[N-[1,4-dihydro-2,6-dimethyl-5-methoxycarbonyl-4-(3-cyanophenyl)pyridine-3-carbonyl]-amino]acetate] | 100 |
| COC(=O)C1=C(C)NC(C)=C(C(=O)NCC(=O)OC(C)(C)C)C1c1cccc(C)c1 (stereo not shown) [Example 35, t-butyl 2-[N-[1,4-dihydro-2,6-dimethyl-5-methoxycarbonyl-4-(3-methylphenyl)pyridine-3-carbonyl]-amino]acetate] | 32.3 |
| CCOC(=O)C1=C(C)NC(C)=C(C(=O)NCC(=O)OC(C)(C)C)C1c1cccc([N+](=O)[O-])c1 (stereo not shown) [Example 36, t-butyl 2-[N-[1,4-dihydro-2,6-dimethyl-5-ethoxycarbonyl-4-(3-nitrophenyl)pyridine-3-carbonyl]-amino]acetate] | 100 |
| CC1=C(C(=O)NCC(=O)OC(C)(C)C)C(c2cccc([N+](=O)[O-])c2)C(C(=O)OC(C)C)=C(C)N1 (stereo not shown) [Example 37, t-butyl 2-[N-[1,4-dihydro-2,6-dimethyl-5-isopropyloxycarbonyl-4-(3-nitrophenyl)pyridine-3-carbonyl]amino]acetate] | 100 |
| COCCOC(=O)C1=C(C)NC(C)=C(C(=O)NCC(=O)OC(C)(C)C)C1c1cccc([N+](=O)[O-])c1 (stereo not shown) [Example 38, t-butyl 2-[N-[1,4-dihydro-2,6-dimethyl-5-(2-methoxyethyloxycarbonyl)-4-(3-nitrophenyl)pyridine-3-carbonyl]amino]acetate] | 100 |
| COC(=O)C1=C(C)NC(C)=C(C(=O)NCC(=O)OC(C)(C)C)C1c1ccccc1C (stereo not shown) [Example 47, t-butyl 2-[N-[1,4-dihydro-2,6-dimethyl-5-methoxycarbonyl-4-(2-methylphenyl)pyridine-3-carbonyl]-amino]acetate] | 32.7 |
| CCOC(=O)C1=C(C)NC(C)=C(C(=O)N[C@H](C(=O)OC(C)(C)C)C(C)C)C1c1cccc([N+](=O)[O-])c1 (stereo partly drawn) [Example 48, t-butyl 2-(S)-[N-[1,4-dihydro-2,6-dimethyl-5-ethoxycarbonyl-4-(3-nitrophenyl)pyridine-3-carbonyl]amino]-3-methylbutylate] | 41.5 |
| CC1=C(C(=O)N[C@H](C(=O)OC(C)(C)C)C(C)C)C(c2cccc([N+](=O)[O-])c2)C(C(=O)OC(C)C)=C(C)N1 (stereo partly shown) [Example 49] | 38.9 |
| COC(=O)C1=C(C)NC(C)=C(C(=O)NCC(=O)N2CCCC2)C1c1cccc([N+](=O)[O-])c1 (stereo not shown) [Example 57, methyl 1,4-dihydro-2,6-dimethyl-4-(3-nitrophenyl)-5-[N-[(pyrrolidin-1-yl)carbonylmethyl]carbamoyl]pyridine-3-carboxylate] | 64.5 |
| COC(=O)C1=C(C)NC(C)=C(C(=O)NCC(=O)N2CCN(c3ccccc3)CC2)C1c1cccc([N+](=O)[O-])c1 (stereo not shown) [Example 58, methyl 1,4-dihydro-2,6-dimethyl-4-(3-nitrophenyl)-5-[N-[(4-phenylpiperazinyl)carbonylmethyl]-carbamoyl]pyridine-3-carboxylate] | 22.1 |
| COCCOC(=O)CNC(=O)C1=C(C)NC(C)=C(C(=O)OC)C1c1cccc([N+](=O)[O-])c1 (stereo not shown) [Example 60] | 47.2 |
| CCOC(=O)CNC(=O)C1=C(C)NC(C)=C(C(=O)OC)C1c1cccc([N+](=O)[O-])c1 (stereo not shown) [Example 62, ethyl 2-[N-[1,4-dihydro-2,6-dimethyl-5-methoxycarbonyl-4-(3-nitropheny1)pyridine-3-carbonyl]amino]-acetate] | 64.3 |
| COC(=O)C1=C(C)NC(C)=C(C(=O)NCC(=O)OC(C)C)C1c1cccc([N+](=O)[O-])c1 (stereo not shown) [Example 63, isopropyl 2-[N-[1,4-dihydro-2,6-dimethyl-5-methoxycarbonyl-4-(3-nitrophenyl)pyridine-3-carbonyl]-amino]acetate] | 100 |
| CCOC(=O)CCNC(=O)C1=C(C)NC(C)=C(C(=O)OC)C1c1cccc([N+](=O)[O-])c1 (stereo not shown) [Example 64, ethyl 3-[N-[1,4-dihydro-2,6-dimethyl-5-methoxycarbonyl-4-(3-nitrophenyl)pyridine-3-carbonyl]amino]-propionate] | 52.6 |
| CCOC(=O)CN(C)C(=O)C1=C(C)NC(C)=C(C(=O)OC)C1c1cccc([N+](=O)[O-])c1 (stereo not shown) [Example 65] | 42.7 |
| COC(=O)C1=C(C)NC(C)=C(C(=O)NCC(=O)N[C@H](C(=O)OC(C)(C)C)C(C)C)C1c1cccc([N+](=O)[O-])c1 (stereo partly drawn) [Example 66, t-butyl 2-(S)-[N-[[N-[1,4-dihydro-2,6-dimethyl-5-methoxycarbonyl-4-(3-nitrophenyl)pyridine-3-carbonyl]amino]acetyl]amino]-3-methylbutylate] | 100 |
